Measured values from patent US11534478B2, “Compositions and methods for treating cancer” (Biokine Therapeutics Ltd., priority 2015, dated 2022).
Where a SMILES comes first, the peptide text is derived from it. Bridges are numbered along the chain shown (N, C = ends). [ ]: non-standard residue; d: D form. The star is where a group is joined. 2Nal = N[C@@H](Cc1ccc2ccccc2c1)C(=O)O; Benzoyl(4-F) = O=C(c1ccc(F)cc1)*; Cit = NC(=O)NCCC[C@H](N)C(=O)O

Assays:
ID02 = molecular target: T1, ID02 (Homo sapiens, UniProt Q6ZQW0); conditions: D isomer; cited from earlier work
T1 sequence (Q6ZQW0 1-407): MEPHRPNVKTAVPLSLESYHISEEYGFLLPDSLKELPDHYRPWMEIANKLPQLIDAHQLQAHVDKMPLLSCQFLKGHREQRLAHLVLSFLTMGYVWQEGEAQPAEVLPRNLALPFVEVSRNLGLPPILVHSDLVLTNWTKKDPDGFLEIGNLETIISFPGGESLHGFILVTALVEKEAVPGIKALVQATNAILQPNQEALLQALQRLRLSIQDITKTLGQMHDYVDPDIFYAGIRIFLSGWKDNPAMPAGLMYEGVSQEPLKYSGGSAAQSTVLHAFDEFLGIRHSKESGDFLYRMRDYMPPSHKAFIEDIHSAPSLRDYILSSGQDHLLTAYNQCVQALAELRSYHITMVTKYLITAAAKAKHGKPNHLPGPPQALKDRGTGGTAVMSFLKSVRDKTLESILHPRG

[1] = in vivo
KIR2DL3 = KIR2DL3 (Homo sapiens, UniProt P10321+P43628); conditions: cited from earlier work
KIR2DL3, sequence (P43628 22-341): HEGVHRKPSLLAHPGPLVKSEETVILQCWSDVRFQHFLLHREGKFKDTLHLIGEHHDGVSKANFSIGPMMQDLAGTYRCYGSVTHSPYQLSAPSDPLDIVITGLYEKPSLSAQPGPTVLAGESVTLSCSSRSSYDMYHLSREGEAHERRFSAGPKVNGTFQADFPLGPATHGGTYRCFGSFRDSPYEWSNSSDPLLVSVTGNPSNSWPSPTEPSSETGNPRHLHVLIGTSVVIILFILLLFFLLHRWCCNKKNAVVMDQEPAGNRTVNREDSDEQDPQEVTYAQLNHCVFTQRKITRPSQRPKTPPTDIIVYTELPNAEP
KIR2DL3, sequence (P10321 25-366): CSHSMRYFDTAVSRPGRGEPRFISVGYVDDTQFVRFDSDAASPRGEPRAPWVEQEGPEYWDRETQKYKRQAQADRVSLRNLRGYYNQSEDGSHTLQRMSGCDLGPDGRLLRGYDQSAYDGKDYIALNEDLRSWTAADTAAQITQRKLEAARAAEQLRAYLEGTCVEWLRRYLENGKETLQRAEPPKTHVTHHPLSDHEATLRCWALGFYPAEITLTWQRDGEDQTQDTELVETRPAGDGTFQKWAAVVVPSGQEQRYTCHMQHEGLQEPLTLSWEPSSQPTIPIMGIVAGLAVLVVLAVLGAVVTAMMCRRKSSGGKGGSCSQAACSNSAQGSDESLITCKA
KIR2DL3, sequence (P61769 21-119 partner): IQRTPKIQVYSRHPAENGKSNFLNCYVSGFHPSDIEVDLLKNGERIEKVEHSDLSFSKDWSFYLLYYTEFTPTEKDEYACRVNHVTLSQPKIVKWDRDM

Compound | inhibition of KIR2DL3 (KIR2DL3) | also measured
Cn1cc(C[C@H](N)C(=O)O)c2ccccc21 [Analog 1-MT, 1-methyl tryptophan] | – | specificity for ID02 (ID02): more specific for ID02
N=C(N)NCCC[C@H](NC(=O)[C@@H]1CSSC[C@H](NC(=O)[C@H](Cc2ccc3ccccc3c2)NC(=O)[C@H](CCCNC(=N)N)NC(=O)[C@H](CCCNC(=N)N)NC(=O)c2ccc(F)cc2)C(=O)N[C@@H](Cc2ccc(O)cc2)C(=O)N[C@@H](CCCNC(N)=O)C(=O)N[C@@H](CCCCN)C(=O)N[C@H](CCCCN)C(=O)N2CCC[C@H]2C(=O)N[C@@H](Cc2ccc(O)cc2)C(=O)N[C@@H](CCCNC(=N)N)C(=O)N[C@@H](CCCNC(N)=O)C(=O)N1)C(N)=O [BL-8040, 4F-benzoyl-Arg-Arg-Nal-Cys-Tyr-Cit-Lys-DLys-Pro-Tyr-Arg-Cit-Cys-Arg-NH2] ({Benzoyl(4-F)}-RR[2Nal]CY[Cit]K[dK]PYR[Cit]CR-NH2; disulfide 4-13 (inferred)) | – | safety and tolerability [1]: safe and well tolerated
VAPWNDAL | inhibitors of KIR2DL3 | –
VAPWSNDYL | inhibitors of KIR2DL3 | –
